Source: patent US20240398789A1, “PHARMACEUTICAL COMPOSITION FOR ENHANCING ANTI-TUMOR EFFECT OF EZH2 INHIBITOR AND USE THEREOF” (PEKING UNIVERSITY THIRD HOSPITAL, priority 2021, published 2024)
pIC50: −log10 of the molar value.

What was measured:
hepatoma SMMC-7721 cells = assay: IncuCyte S3 live-cell proliferation of SMMC-7721 cells; assay type: cell-based
Procedure: (§1) FIG. 1: Hematological tumors are more sensitive to GSK126 than solid tumors. (A) Proliferation of B16F10, Huh7 and SMMC7721 cells in GSK126 (10-20 μM) treatment was monitored by Incucyte S3 with 6 replicates per group; (B) Viabilities of Daudi and THP-1cells after GSK126 (200 nM to 24 μM) treatment for 24 h and 48 h were measured by CCK-8 assay with 5 replicates per group; (C) Western blot (WB) analysis on B16F10 cells after 48 h without or with GSK126 treatment (6 μM, and 12 μM), with H3 used as an internal reference for histone. 5 to 6 replicates were established for each group, with *P<0.05, **P<0.01, and ***P<0.001, and ns for no statistical difference.
(§2) FIG. 6: Lipid-modulating drugs can enhance the inhibitory effect of GSK126 on cancer cells. […] 3 to 5 replicates were established for each group, with *P<0.05, **P<0.01, and ***P<0.001.
(§3) In order to accurately assess the responsiveness of solid tumor cells to EZH2 inhibitors, the effects of GSK126 at different concentrations on the proliferation of melanoma B16F10 cells and hepatoma Huh7 and SMMC-7721 cells were initially detected by IncuCyte S3® Live-Cell Analysis System.

[1] = system: H3K27me3 level in B16F10 cells; assay: Western blot of H3K27me3 in B16F10 cells; assay type: cell-based; conditions: GSK126 6 μM, 48 h, H3 internal reference
Procedure: as §1

melanoma cells B16F10 = assay: Cell scratch assay (migration) of B16F10 cells; assay type: cell-based; conditions: GSK126 10 μM, 36 h of culture, vs control group
Procedure: (§4) FIG. 2: Melanoma cells B16F10 are less sensitive to GSK126. (A) Cell scratch assay, showing the effect of GSK126 (10 μM) treatment on the migration capability of B16F10 cells, with 3 replicates per group; (B-C) the effect of GSK126 (10, 13, and 15 μM) on the apoptosis rate of B16F10 cells, as examined by flow cytometry (C) and Annexin V staining assay. 3 replicates were established for each group, with *P<0.05, **P<0.01, and ***P<0.001, and ns for no statistical difference.
(§5) Next, to further validate the effect of GSK126 at 10 μM on melanoma cells B16F10,scratch assay was conducted. […] In addition, to assess the anti-survival effect of GSK126, B16F10 cells were treated by GSK126 at different concentrations for different periods, and the apoptosis rate of the cells was analyzed by flow cytometry (FIG. 2B) and live-cell fluorescence imaging (FIG. 2C).

hepatoma Huh7 cells = assay: IncuCyte S3 live-cell proliferation of Huh7 cells; assay type: cell-based
Procedure: as §1, §3

[2] = system: ACLY, FASN, SCD in SMMC7721 cells; assay: RT-qPCR/WB of fatty acid synthesis genes in SMMC7721 cells; assay type: cell-based; conditions: after GSK126 treatment
Source text: (§6) FIG. 4: Lipid accumulation in mice after GSK126 treatment. (A) H & E and oil red O staining of the liver tissue sections of the tumor-bearing mice in the control group and the GSK126 treatment group, in which the statistical results of negative or positive staining area were shown on the right (3 replicates per group); (B) TG level in the serum of the tumor-bearing mice in the control group and the GSK126 treatment group (5 replicates per group); (C-D) mRNA (C) and protein (D) levels of the genes related to fatty acid anabolism in the GSK126-treated HCC cells, as detected by RT-qPCR and WB (3 replicates per group). 3 to 5 replicates were established for each group, with *P<0.05, **P<0.01.
as §2
(§7) C57BL/6 mice (6-8 weeks old) were subcutaneously implanted with B16F10 cells and then treated with GSK126. […] Therefore, the expression of fatty acid synthesis-related genes in GSK126-treated hepatocellular carcinoma (HCC) cell lines SMMC7721 and Huh7 was further detected.

B16F10 cells = assay: Apoptosis of B16F10 cells by flow cytometry and live-cell fluorescence imaging; assay type: cell-based; conditions: GSK126 10 μM
Procedure: as §4, §5

[3] = system: hematologic cancer cell lines; conditions: most hematologic cancer cell lines; many studies; read-out: IC50 (half-maximal inhibitory concentration); cited from earlier work
[4] = system: mouse brain glioma cell line (GL261); assay: IncuCyte S3 live-cell proliferation of GL261 cells; assay type: cell-based
Procedure: 3 to 6 replicates were established for each group, with *P<0.05, **P<0.01, and ***P<0.001, and ns for no statistical difference.
IncuCyte S3® Live-Cell Analysis System was used to monitor and analyze the growth of mouse glioma GL261 cells. • (1) GL-261 cells in logarithmic growth phase were prepared into a single cell suspension, and the cells were counted; • (2) GL261 cells were added into a 96-well plate at a density of 8x10^4 cells/mL, with 4-6 replicate wells per each group; • (3) The 96-well plate was then placed in an incubator for another 12-24 hours, and the plate was refreshed with a culture medium containing the drug at the cell confluence of about 20-30%. GSK126 and fenofibrate (FF) were serially diluted using the medium; • (4) The 96-well plate was then placed in the incubator suitable for the instrument, and detected with IncuCyte S3® Live-Cell Analysis System. Cell growth images of 4 different areas in each well were taken at an interval of 4 h using a 10× objective lens. • (5) The plate was real-time monitored for 48 h, and the cell confluence was determined by defining the cell edge using IncuCyte S3 image analysis software and normalized to the cell confluence at 0 h. […]

[5] = system: ACLY, FASN, SCD in Huh7 cells; assay: RT-qPCR/WB of fatty acid synthesis genes in Huh7 cells; assay type: cell-based; conditions: after GSK126 treatment
Source text: as §6, §7

melanoma B16F10 cells [6] = assay: Fatty acid metabolite levels in B16F10 cells; assay type: cell-based; conditions: GSK126 group
Source text: FIG. 3: GSK126 results in significant elevated levels of 6 fatty acids in melanoma B16F10 cells.
Among the metabolites with significant changes, the levels of many fatty acids increased in the GSK126 group. There are five polyunsaturated fatty acids, including α-linolenic acid, DHA, EPA, linoleic acid, and γ-linolenic acid) and one monounsaturated fatty acid, i.e., 10Z-heptadienoic acid (FIG. 3).

[7] = system: Burkitt's lymphoma cells (Daudi); assay: CCK-8 cell proliferation assay, Daudi; assay type: cell-based
Procedure: as §1

C57BL/6 mice = assay: Lipid accumulation in B16F10 tumor-bearing C57BL/6 mice; assay type: in vivo; conditions: B16F10 tumor-bearing C57BL/6 mice treated with GSK126
Source text: as §6, §7

THP-1 cells = assay: CCK-8 cell proliferation assay, THP-1; assay type: cell-based; conditions: 10 μM GSK126 for 24 h and 48 h
Procedure: as §1

melanoma B16F10 cells [8] = assay: IncuCyte S3 live-cell proliferation of B16F10 cells; assay type: cell-based
Procedure: as §1
P=0.0108, P=0.0385, Kaplan-Meier survival analysis; (C) effect of telmisartan at different concentrations on the proliferation of U87 cells (left) and U251 cells (right) (3 replicates per group); (D) effect of fenofibrate at different concentrations on the proliferation of B16F10 cells (left) and 4T1 cells (right) (3 replicates per group); (E) FACS quantitative analysis of the percentage of cells positive for EdU (FITC+) staining 48 h after the telmisartan treatment on U87 and U251 cells. Single cells were first gated, followed by FITC+cells. The percentage of FITC+ cells was listed above the corresponding cell population. […]

human glioma cells U87 = assay: Incucyte real-time proliferation of U87 cells; assay type: cell-based; conditions: telmisartan at different concentrations
Procedure: (§8) P=0.0108, P=0.0385, Kaplan-Meier survival analysis; (C) effect of telmisartan at different concentrations on the proliferation of U87 cells (left) and U251 cells (right) (3 replicates per group); (D) effect of fenofibrate at different concentrations on the proliferation of B16F10 cells (left) and 4T1 cells (right) (3 replicates per group); (E) FACS quantitative analysis of the percentage of cells positive for EdU (FITC+) staining 48 h after the telmisartan treatment on U87 and U251 cells. Single cells were first gated, followed by FITC+cells. The percentage of FITC+ cells was listed above the corresponding cell population. 3 replicates were established for each group, with *P<0.05, **P<0.01, ***P<0.001, and ****P<0.0001, and ns for no statistical difference.
(§9) Therefore, telmisartan and fenofibrate were selected to explore whether lipid metabolism-regulating drugs have anti-tumor effects. […] The effect of telmisartan (50 μM) on cell proliferation was further verified by EdU staining.

human glioma cells U251 = assay: Incucyte real-time proliferation of U251 cells; assay type: cell-based; conditions: telmisartan at different concentrations
Procedure: as §8, §9

U251 cells = assay: EdU staining with flow cytometry, U251; assay type: cell-based, human; conditions: telmisartan 50 μM, 48 h, 41.44% before treatment
Procedure: as §8, §9

U87 cells = assay: EdU staining with flow cytometry, U87; assay type: cell-based, human; conditions: telmisartan 50 μM, 48 h, 24.25% before treatment
Procedure: as §8, §9

[9] = GSK126 at different concentrations (10-20 μM)

For CC[C@H](C)n1cc(C)c2c(C(=O)NCc3c(C)cc(C)[nH]c3=O)cc(-c3ccc(N4CCNCC4)nc3)cc21 [GSK126], the cell proliferation (hepatoma SMMC-7721 cells; GSK126 10 μM) was “less effective”, the cell proliferation (hepatoma SMMC-7721 cells; [9]) was “inhibited cell proliferation in a dose-dependent manner” and the H3K27me3 level [1] was “significantly down-regulated”. For the same compound, the cell migration (melanoma cells B16F10) was “did not effectively inhibit cell migration”, the cell proliferation (hepatoma Huh7 cells; GSK126 10 μM) was “less effective” and the cell proliferation (hepatoma Huh7 cells; [9]) was “inhibited cell proliferation in a dose-dependent manner”. The “mRNA and protein levels of ACLY, FASN, and SCD” value [2] was “significantly elevated”, the apoptosis rate (B16F10 cells) was “limited capability to induce apoptosis” and the pIC50 [3] was over 6.00. The “inhibitory effect on cell proliferation” value ([4]; GSK126 20 μM alone, compared with 40 μM or combination) was “can not achieved”, the “inhibitory effect on cell proliferation” value ([4]; GSK126 40 μM, compared with GSK126 20 μM + fenofibrate 10 μM) was “the same as that of the combination” and the “mRNA and protein levels of ACLY, FASN, and SCD” value [5] was “significantly elevated”. The “levels of fatty acids (α-linolenic acid, DHA, EPA, linoleic acid, γ-linolenic acid, 10Z-heptadienoic acid)” value (melanoma B16F10 cells [6]) was “increased”, the “sensitivity (CCK-8 proliferation)” value ([7]; 1 μM GSK126) was “very sensitive” and the “proliferation (CCK-8)” value ([7]; 10 μM GSK126 for 24 h and 48 h) was “significantly inhibited”. The “fat vacuoles and lipid deposition in liver tissue sections (H & E and oil red O staining)” value (C57BL/6 mice) was “significant increase”, the “levels of triglycerides (TG) in blood” value (C57BL/6 mice) was “significantly elevated” and the “proliferation (CCK-8)” value (THP-1 cells) was “significantly inhibited”. The cell proliferation (melanoma B16F10 cells [8]; GSK126 10 μM) was “less effective” and the cell proliferation (melanoma B16F10 cells [8]; [9]) was “inhibited cell proliferation in a dose-dependent manner”.
For CCCc1nc2c(C)cc(-c3nc4ccccc4n3C)cc2n1Cc1ccc(-c2ccccc2C(=O)O)cc1 [telmisartan], the cell proliferation (human glioma cells U87) was “inhibit the proliferation”, the cell proliferation (human glioma cells U251) was “inhibit the proliferation” and the “percentage of EdU+ cells” value (U251 cells) was 38.78%. The “percentage of EdU+ cells” value (U87 cells) was 21.16%.
